Values of other authors as cited in US8840932B2, “Antiseptic compositions and methods” (priority 2002, dated 2014).

Settings: 25° C.

In the case of II [elemental iodine, iodine], the solubility in water is listed as 0.03 wt-%.
